Measurements published in US20220041559A1, “BENZO-AND PYRIDO-PYRAZOLES AS PROTEIN KINASE INHIBITORS” (ROTTAPHARM BIOTECH S.R.L., priority 2019, published 2022).

target: T1, FYN (Homo sapiens, UniProt P06241); assay: Z'-LYTE in vitro kinase assay, FYN kinase inhibition; assay type: biochemical; settings: Table 17
T1 construct: purchased CarnaBioscience
Protocol: Assays to determine the kinase inhibitory activity of compounds were performed using an automatic liquid handling device (Microlab STAR Hamilton) and Z′-LYTE™ Kinase Assay Platform (Invitrogen), a Fluorescence Resonance Energy Transfer (FRET)-based assay platform compatible with high-throughput screening (HTS) applications. The assay employs a fluorescence-based, coupled-enzyme format and utilizes the differential sensitivity of phosphorylated and non-phosphorylated peptides to proteolytic cleavage.
Test compounds were evaluated towards active FYN (CarnaBioscience). The enzyme was incubated in a 384 low-volume microplate with a synthetic peptide-substrate, ATP and different inhibitor concentrations, ranging from 10^−10 M up to 10^−5 M final concentration. Samples representing the 0% inhibition (or total enzymatic activity) were in the presence of compound diluent (1% DMSO final) in Reaction Buffer (50 mM Hepes, 10 mM MgCl2, 1 mM EGTA, 0.01% Brij-35, pH 7.5).
A near-Km ATP concentrations for the kinase and an optimal enzyme concentration that phosphorylates 20-40% of the Z′-LYTE™ Tyr 2 Peptide in a one-hour incubation, were selected. All reagents were diluted in reaction buffer and the kinase reaction was carried out in a total volume of 10 μl, for 60 minutes at 25° C. The 0% Phosphorylation (i.e. no ATP) and 100% Phosphorylation (i.e. synthetically phosphorylated peptide supplied) Assay Controls, included in each plate, allowed to calculate the percent phosphorylation achieved in the specific reaction well. The 0% Inhibition and 0% Phosphorylation (i.e. 100% Inhibition) Controls define the dynamic range in the screen. At the end of incubation, a secondary reaction (the Development Reaction) started by adding 5 μl of Development Reagent, containing a site-specific protease that recognizes and cleaves non-phosphorylated peptides, and was interrupted after 60 minutes with 5 μl/sample of Stop Reagent. Measurement of the Coumarin (Ex. 400 nm, Em. 460 nm) and Fluorescein (Ex. 400 nm, Em. 535 nm) emission signals were performed by a fluorescence plate reader (Envision, PerkinElmer).
Results are expressed as percentage of inhibition and the IC50 values were calculated by non-linear curve fitting using GraphPad™ Prism software.

T1 sequence (P06241 whole entry): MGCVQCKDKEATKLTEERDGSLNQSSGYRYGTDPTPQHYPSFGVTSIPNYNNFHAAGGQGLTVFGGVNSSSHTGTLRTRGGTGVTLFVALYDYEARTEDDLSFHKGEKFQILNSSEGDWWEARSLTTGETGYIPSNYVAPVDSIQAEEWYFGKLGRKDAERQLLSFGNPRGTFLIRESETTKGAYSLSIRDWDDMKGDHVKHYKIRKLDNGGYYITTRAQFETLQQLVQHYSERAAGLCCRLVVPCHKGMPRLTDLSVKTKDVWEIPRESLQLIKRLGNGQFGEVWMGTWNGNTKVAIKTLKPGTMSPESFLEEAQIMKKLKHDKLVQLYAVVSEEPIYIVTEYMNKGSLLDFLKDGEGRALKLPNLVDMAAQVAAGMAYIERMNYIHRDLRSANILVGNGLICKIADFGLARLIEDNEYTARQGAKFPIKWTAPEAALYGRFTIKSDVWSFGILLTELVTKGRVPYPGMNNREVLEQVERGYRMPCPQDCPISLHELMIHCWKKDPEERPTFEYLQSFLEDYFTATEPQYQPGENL

| SMILES | FYN kinase inhibition, result in words |
| --- | --- |
| Cc1cccc(F)c1Nc1ccc2c(NC(=O)c3ccc(C4CCN(C)CC4)cc3)n[nH]c2c1 [Compound 11, N-(6-((2-fluoro-6-methylphenyl)amino)-1H-indazol-3-yl)-4-(1-methylpiperidin-4-yl)benzamide] | more active |
| CN1CCC(c2ccc(C(=O)Nc3n[nH]c4cc(Nc5c(F)ccc6c5OCO6)ccc34)cc2)CC1 [Compound 15, N-(6-((5-fluorobenzo[d][1,3]dioxol-4-yl)amino)-1H-indazol-3-yl)-4-(1-methylpiperidin-4-yl)benzamide] | more active |

same assay, conditions: near-Km ATP, 60 minutes at 25° C.

| SMILES | IC50 |
| --- | --- |
| CN1CCC(c2ccc(C(=O)Nc3n[nH]c4cc(Nc5ccc(F)cc5Cl)ccc34)cc2)CC1 [Compound 9, N-(6-((2-chloro-4-fluorophenyl)amino)-1H-indazol-3-yl)-4-(1-methylpiperidin-4-yl)benzamide] | 388 nM |
| CN1CCC(c2ccc(C(=O)Nc3n[nH]c4nc(Nc5ccc(F)cc5F)ccc34)cc2)CC1 [Compound 22, N-(6-((2,4-difluorophenyl)amino)-1H-pyrazolo[3,4-b]pyridin-3-yl)-4-(1-methylpiperidin-4-yl)benzamide] | 283 nM |
| CN1CCCC(Oc2ccc(C(=O)Nc3n[nH]c4cc(Nc5ccccc5F)ccc34)cc2)C1 (single isomer, unassigned) [Compound 41] | 374 nM |
| CN1CCC(Oc2ccc(C(=O)Nc3n[nH]c4cc(Nc5ccccc5F)ccc34)cc2)CC1 [Compound 35, N-(6((2-fluorophenyl)amino)-1H-indazol-3-yl)-4((1-methylpiperidin-4-yl)oxy)benzamide] | 145 nM |
| Cc1ccc(Nc2ccc3c(NC(=O)c4ccc(C5CCN(C)CC5)cc4)n[nH]c3c2)cc1 [Compound 18, 4-(1-methylpiperidin-4-yl)-N-(6-(p-tolyamino)-1H-indazol-3-yl)benzamide] | 105 nM |
| CN1CCC(c2ccc(C(=O)Nc3n[nH]c4cc(Nc5ccc(F)cc5F)ccc34)cc2)CC1 [Compound 16, N-(6-((2,4-difluorophenyl)amino)-1H-indazol-3-yl)-4-(1-methylpiperidin-4-yl)benzamide] | 97 nM |
| Cc1cccc(F)c1Nc1ccc2c(NC(=O)c3ccc(C4CCN(C)CC4)cc3)n[nH]c2n1 [Compound 21, N-(6-((2-fluoro-6-methylphenyl)amino)-1H-pyrazolo[3,4-b]pyridin-3-yl)-4-(1-methylpiperidin-4-yl)benzamide] | 442 nM |
| CN1CCC(c2ccc(C(=O)Nc3n[nH]c4cc(Nc5ccccc5F)ccc34)cc2OCC2COC2)CC1 [Compound 42, N-(6-((2-fluorophenyl)amino)-1H-indazol-3-yl)-4-(1-methylpiperidin-4-yl)-3-(oxetan-3-ylmethoxy)benzamide] | 204 nM |
| O=C(Nc1n[nH]c2cc(Nc3ccccc3F)ccc12)c1ccc(N2CCOCC2)cc1 [Compound 36, N-(6((2-fluorophenyl)amino)-1H-indazol-3-yl)-4-morpholinobenzamide] | 370 nM |
| Cc1cccc(F)c1Nc1ccc2c(NC(=O)c3ccc(C4CCN(C)CC4)cc3)n[nH]c2c1 [Compound 11, N-(6-((2-fluoro-6-methylphenyl)amino)-1H-indazol-3-yl)-4-(1-methylpiperidin-4-yl)benzamide] | 47 nM |
| CN1CC[C@@H](c2ccc(C(=O)Nc3n[nH]c4cc(Nc5ccccc5F)ccc34)cc2)[C@@H](F)C1 (single isomer, unassigned) [Compound 3] | 307 nM |
| CN1CCC(c2ccc(C(=O)Nc3n[nH]c4cc(Nc5c(F)ccc6c5OCO6)ccc34)cc2)CC1 [Compound 15, N-(6-((5-fluorobenzo[d][1,3]dioxol-4-yl)amino)-1H-indazol-3-yl)-4-(1-methylpiperidin-4-yl)benzamide] | 19 nM |
| CN1CCC(c2ccc(C(=O)Nc3n[nH]c4nc(Nc5c(F)ccc6c5OCO6)ccc34)cc2)CC1 [Compound 49, N-(6((5-fluorobenzo[d][1,3]dioxol-4-yl)amino)-1H-pyrazolo[3,4-b]pyridin-3-yl)-4-(1-methylpiperidin-4-yl)benzamide] | 831 nM |
| Cc1cccc(Cl)c1Nc1ccc2c(NC(=O)c3ccc(C4CCN(C)CC4)cc3)n[nH]c2c1 [Compound 13, N-(6-((2-choro-6-methylphenyl)amino)-1H-indazol-3-yl)-4-(1-methylpiperidin-4-yl)benzamide] | 207 nM |
| CN1CCCC(Oc2ccc(C(=O)Nc3n[nH]c4cc(Nc5ccccc5F)ccc34)cc2)C1 (single isomer, unassigned) [Compound 40] | 548 nM |
| CN1CCC(c2ccc(C(=O)Nc3n[nH]c4cc(Nc5ccc(Cl)cc5F)ccc34)cc2)CC1 [Compound 12, N-(6-((4-chloro-2-fluorophenyl)amino)-1H-indazol-3-yl)-4-(1-methylpiperidin-4-yl)benzamide] | 220 nM |
| O=C(Nc1n[nH]c2cc(Nc3ccccc3F)ccc12)c1ccc(C2CCN(C3COC3)CC2)cc1 [Compound 7, N-(6-((2-fluorophenyl)amino)-1H-indazol-3-yl)-4-(1-(oxetan-3-yl)piperidin-4-yl)benzamide] | 468 nM |
| CN1CCN(c2ccc(C(=O)Nc3n[nH]c4cc(Nc5ccccc5F)ccc34)cc2)CC1 [Compound 34, N-(6-((2-fluorophenyl)amino)-1H-indazol-3-yl)-4-(4-methylpiperazin-1-yl)benzamide] | 147 nM |
| CN1CCC(c2ccc(C(=O)Nc3n[nH]c4cc(Nc5ccccc5C(F)(F)F)ccc34)cc2)CC1 [Compound 10, 4-(1-methylpiperidin-4-yl)-N-(6-((2-(trifluoromethyl)phenyl)amino)-1H-indazol-3-yl)benzamide] | 650 nM |
| CC(C)N1CCC(c2ccc(C(=O)Nc3n[nH]c4nc(Nc5ccccc5F)ccc34)cc2)CC1 [Compound 24, N-(6-((2-fluorophenyl)amino)-1H-pyrazolo[3,4-b]pyridin-3-yl)-4-(1-isopropylpiperidin-4-yl)benzamide] | 209 nM |
| CN1CC[C@@H](c2ccc(C(=O)Nc3n[nH]c4cc(Nc5ccccc5F)ccc34)cc2)[C@@H](F)C1 (single isomer, unassigned) [Compound 4] | 203 nM |
| CN1CCCC(Oc2ccc(C(=O)Nc3n[nH]c4cc(Nc5ccccc5F)ccc34)cc2)C1 (stereo not drawn) [Compound 38, N-(6((2-fluorophenyl)amino)-1H-indazol-3-yl)-4((1-methylpiperidin-3-yl)oxy)benzamide] | 283 nM |
| CN1CCC(c2ccc(C(=O)Nc3n[nH]c4cc(Nc5cccc(F)c5)ccc34)cc2)CC1 [Compound 19, N-(6-((3-fluorophenyl)amino)-1H-indazol-3-yl)-4-(1-methylpiperidin-4-yl)benzamide] | 258 nM |
| COc1ccccc1Nc1ccc2c(NC(=O)c3ccc(C4CCN(C)CC4)cc3)n[nH]c2n1 [Compound 27, N-(6-((2-methoxyphenyl)amino)-1H-pyrazolo[3,4-b]pyridin-3-yl)-4-(1-methylpiperidin-4-yl)benzamide] | 538 nM |
| CCc1cccc(F)c1Nc1ccc2c(NC(=O)c3ccc(C4CCN(C)CC4)cc3)n[nH]c2c1 [Compound 2, N-(6-((2-ethyl-6-fluorophenyl)amino)-1H-indazol-3-yl)-4-(1-methylpiperidin-4-yl)benzamide] | 315 nM |
| CN1CCC(c2ccc(C(=O)Nc3n[nH]c4nc(Nc5ccccc5Cl)ccc34)cc2)CC1 [Compound 26, N-(6-((2-chlorophenyl)amino)-1H-pyrazolo[3,4-b]pyridin-3-yl)-4-(1-methylpiperidin-4-yl)benzamide] | 260 nM |
| COc1ccc(Nc2ccc3c(NC(=O)c4ccc(C5CCN(C)CC5)cc4)n[nH]c3n2)cc1 [Compound 31, N-(6-((4-methoxyphenyl)amino)-1H-pyrazolo[3,4-b]pyridin-3-yl)-4-(1-methylpiperidin-4-yl)benzamide] | 589 nM |
| CN1CCC(c2ccc(C(=O)Nc3n[nH]c4cc(Nc5ccccc5F)ccc34)c(NC3CCOCC3)c2)CC1 [Compound 53, N-(6-((2-fluorophenyl)amino)-1H-indazol-3-yl)-4-(1-methylpiperidin-4-yl)-2-((tetrahydro-2H-pyran-4-yl)amino)benzamide] | 201 nM |
